pIC50: −log10 of the molar value.
Target: T1, angiotensin converting enzyme (Oryctolagus cuniculus, UniProt P12822)
T1 sequence (P12822 34-1310): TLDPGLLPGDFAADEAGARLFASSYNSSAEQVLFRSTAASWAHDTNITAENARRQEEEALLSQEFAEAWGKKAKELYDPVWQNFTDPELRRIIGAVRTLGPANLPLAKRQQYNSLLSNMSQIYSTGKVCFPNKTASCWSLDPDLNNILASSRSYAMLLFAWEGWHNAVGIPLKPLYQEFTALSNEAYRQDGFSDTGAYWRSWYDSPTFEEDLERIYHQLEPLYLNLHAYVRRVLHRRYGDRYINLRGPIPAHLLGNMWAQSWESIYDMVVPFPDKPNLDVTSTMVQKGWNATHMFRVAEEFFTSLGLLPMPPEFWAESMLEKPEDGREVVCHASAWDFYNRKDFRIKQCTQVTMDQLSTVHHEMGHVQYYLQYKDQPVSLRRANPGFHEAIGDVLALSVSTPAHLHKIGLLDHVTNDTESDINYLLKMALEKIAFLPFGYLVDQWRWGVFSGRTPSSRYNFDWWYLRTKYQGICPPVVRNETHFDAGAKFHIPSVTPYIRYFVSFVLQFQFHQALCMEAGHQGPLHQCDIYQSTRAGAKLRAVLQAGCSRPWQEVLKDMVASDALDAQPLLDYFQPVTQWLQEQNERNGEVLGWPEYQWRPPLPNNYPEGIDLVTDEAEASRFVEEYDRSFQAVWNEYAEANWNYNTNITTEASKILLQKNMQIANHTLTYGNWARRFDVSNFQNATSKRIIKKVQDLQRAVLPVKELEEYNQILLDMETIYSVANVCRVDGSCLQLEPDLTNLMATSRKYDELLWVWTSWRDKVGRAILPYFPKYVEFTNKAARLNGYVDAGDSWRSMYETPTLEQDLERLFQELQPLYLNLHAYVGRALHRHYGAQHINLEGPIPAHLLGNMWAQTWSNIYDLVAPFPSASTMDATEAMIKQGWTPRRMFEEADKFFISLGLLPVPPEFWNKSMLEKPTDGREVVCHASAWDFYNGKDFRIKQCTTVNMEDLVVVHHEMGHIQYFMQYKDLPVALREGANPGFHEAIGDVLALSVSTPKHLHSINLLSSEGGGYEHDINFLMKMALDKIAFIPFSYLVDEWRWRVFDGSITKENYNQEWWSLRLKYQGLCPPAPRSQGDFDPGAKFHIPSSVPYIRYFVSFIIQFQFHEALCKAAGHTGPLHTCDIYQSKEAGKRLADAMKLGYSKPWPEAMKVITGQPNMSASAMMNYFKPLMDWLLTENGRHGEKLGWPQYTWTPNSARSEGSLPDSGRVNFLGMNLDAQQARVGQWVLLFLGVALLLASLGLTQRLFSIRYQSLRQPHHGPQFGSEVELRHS
Assay: in vitro inhibition of angiotensin converting enzyme (hippuryl-histidyl-leucine cleavage)
Format: biochemical
Details: substrate hippuryl-histidylleucine 2 mM, pH 8.3, 24 minutes at 37° C.; esters cleaved by hog liver esterase before test
Protocol: The activity of the present compounds in inhibiting angiotensin converting enzyme in vitro can be determined by the following test.
The method used is based on the method of Cushman and Cheung (Biochem. Pharmacol., 20. 1637-1648) incorporating the modifications introduced by Hayakari et al (Anal. Biochem., 84. 361-369). The substrate (hippuryl-histidylleucine, 2 mM) is incubated with angiotensin converting enzyme in the presence or absence of various concentrations of test substance in potassium phosphate buffer (pH 8.3; 100 mM) containing sodium chloride (300 mM) for 24 minutes at 37° C. (total value 500 μl). (if the test substance is an ester, it is appropriate to cleave it by means of hog liver esterase before carrying out the test). The reaction is terminated by the addition of 3 ml of potassium phosphate buffer (pH 8.3; 200 mM) at 0° C. 2,4,6-Trichloro-s-triazine (3%) in 1.5 ml of dioxan is added and the mixture is agitated until the yellow chromophore has developed fully. The samples are then centrifuged to remove any precipitate which has formed. The yellow chromophore formed by the reaction of the 2,4,6-trichloro-s-triazine with free hippuric acid is measured spectrophotometrically at 382 nm. […]

pIC50: 8.02
SMILES: O=C(O)[C@@H]1CCCN2CCC[C@H](CP(=O)(O)O)C(=O)N12 [Compound A, Octahydro9(S)--phosphonomethyl10-oxo-6H--pyridazo[1,2a][1,2]diazepine1(S)-carboxylic acid]
